US20230406885A1, “CYCLIC PEPTIDES FOR TRAPPING INTERLEUKIN-1 BETA” (MERCK SHARP & DOHME LLC, priority 2022, published 2023)
*1 amine or outer side, *2 acyl side, *3 side chain or, on linkers, in order; H or OH if unused. Where a SMILES comes first, the peptide text is derived from it. [ ]: non-standard residue; d: D form. 3AzaPhe4AcPip = (S)-3-(6-(4-acetylpiperazin-1-yl)pyridin-3-yl)-2-aminopropanoic acid, CC(=O)N1CCN(c2ccc(C[C@H](N[*:1])C(=O)[*:2])cn2)CC1; 3Pal4Ph4CO2H = (S)-4-(5-(2-amino-2-carboxyethyl)pyridin-2-yl)benzoic acid, O=C([C@H](Cc1ccc(-c2ccc(C(=O)[*:3])cc2)nc1)N[*:1])[*:2]; Phe(4-(4-Ac-piperazinyl)) = CC(=O)N1CCN(c2ccc(C[C@H](N)C(=O)O)cc2)CC1; Pro(trans-4-NH2) = O=C([C@@H]1C[C@@H](N[*:3])CN1[*:1])[*:2]; Bip(4'-COOH) = N[C@@H](Cc1ccc(-c2ccc(C(=O)O)cc2)cc1)C(=O)O; 1Nal(3S-Me) = C[C@@H](c1cccc2ccccc12)[C@H](N)C(=O)O; Ala(indolin-1-yl) = N[C@@H](CN1CCc2ccccc21)C(=O)O; Trp(6-Cl) = N[C@@H](Cc1c[nH]c2cc(Cl)ccc12)C(=O)O; Phe(4-COOH) = N[C@@H](Cc1ccc(C(=O)O)cc1)C(=O)O; Trp(6-F) = N[C@@H](Cc1c[nH]c2cc(F)ccc12)C(=O)O; Trp(7-aza) = N[C@@H](Cc1c[nH]c2ncccc12)C(=O)O; X14 = C[N+](C)(C)CC[C@@H](N[*:1])C(=O)[*:2]; h3Pal(5-CN) = N#Cc1cncc(CC[C@H](N)C(=O)O)c1; Pro(4R-NH2) = N[C@H]1CN[C@H](C(=O)O)C1; AEF = NCCOc1ccc(C[C@H](N)C(=O)O)cc1; hTyr = N[C@@H](CCc1ccc(O)cc1)C(=O)O; hCha = N[C@@H](CCC1CCCCC1)C(=O)O; 4Pal = N[C@@H](Cc1ccncc1)C(=O)O; dDab = NCC[C@@H](N)C(=O)O; Orn = NCCC[C@H](N)C(=O)O; dDap = NC[C@@H](N)C(=O)O; dNMeA = CN[C@H](C)C(=O)O; Dap = NC[C@H](N)C(=O)O

B1: SEQ ID NO: 1 (peptide)
peptide: cyclo([3AzaPhe4AcPip]W[Phe(4-COOH)]G[Pro(trans-4-NH2)][1Nal(3S-Me)]D[dNMeA]G[Bip(4'-COOH)][4Pal][Dap][dA][h3Pal(5-CN)])
SMILES: CC(=O)N1CCN(c2ccc(C[C@@H]3NC(=O)[C@H](CCc4cncc(C#N)c4)NC(=O)[C@@H](C)NC(=O)[C@H](CN)NC(=O)[C@H](Cc4ccncc4)NC(=O)[C@H](Cc4ccc(-c5ccc(C(=O)O)cc5)cc4)NC(=O)CNC(=O)[C@@H](C)N(C)C(=O)[C@H](CC(=O)O)NC(=O)[C@H]([C@@H](C)c4cccc5ccccc45)NC(=O)[C@@H]4C[C@@H](N)CN4C(=O)CNC(=O)[C@H](Cc4ccc(C(=O)O)cc4)NC(=O)[C@H](Cc4c[nH]c5ccccc45)NC3=O)cn2)CC1
B2: SEQ ID NO: 10 (peptide)
peptide: cyclo([3Pal4Ph4CO2H]W[Phe(4-COOH)]G[Pro(trans-4-NH2)][1Nal(3S-Me)]D[dNMeA]G[3Pal4Ph4CO2H]W[Dap][dA][hTyr])
SMILES: C[C@@H]1C(=O)NCC(=O)N[C@@H](Cc2ccc(-c3ccc(C(=O)O)cc3)nc2)C(=O)N[C@@H](Cc2c[nH]c3ccccc23)C(=O)N[C@@H](CN)C(=O)N[C@H](C)C(=O)N[C@@H](CCc2ccc(O)cc2)C(=O)N[C@@H](Cc2ccc(-c3ccc(C(=O)O)cc3)nc2)C(=O)N[C@@H](Cc2c[nH]c3ccccc23)C(=O)N[C@@H](Cc2ccc(C(=O)O)cc2)C(=O)NCC(=O)N2C[C@H](N)C[C@H]2C(=O)N[C@@H]([C@@H](C)c2cccc3ccccc23)C(=O)N[C@@H](CC(=O)O)C(=O)N1C

molecular target: Recombinant human IL-1β (BioLegend 579404) (human, UniProt P01584 117-269); assay: cell-based or functional assay; settings: not given

MRC5 IC50	Molecule
0.0365 nM	B1
0.256 nM	B2

molecular target: T1, Recombinant human IL-1β (Homo sapiens, UniProt P01584); assay: IL-6 assay in MRC5 cells: inhibition of IL-1β induced IL-6 secretion (AlphaLISA); assay type: cell-based; settings: inhibition of IL-1β induced IL-6 secretion in MRC5 cells; read-out: MRC5 IC50
T1 construct: purchased BioLegend 579404
T1 sequence (P01584 117-269): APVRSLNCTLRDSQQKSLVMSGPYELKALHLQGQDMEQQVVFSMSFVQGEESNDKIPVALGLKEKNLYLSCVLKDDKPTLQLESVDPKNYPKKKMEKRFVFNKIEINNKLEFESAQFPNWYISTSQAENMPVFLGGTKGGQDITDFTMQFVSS
Summary of the method: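 IL-1β at 2×EC80 in seeding medium (EMEM, 0.025% BSA) preincubated 1 h at ambient temperature with compound, then 3000 MRC5 cells/well added and incubated overnight at 37 °C, 5% CO2. IL-6 in conditioned medium quantified by AlphaLISA; IC50 from 4-parameter logistic fit.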

IC50	Molecule
0.01 nM	CC(=O)NC[C@@H]1NC(=O)[C@H](Cc2ccc(-c3ccc(C(=O)O)cc3)cc2)NC(=O)CNC(=O)[C@@H](C)N(C)C(=O)[C@H](CC(=O)O)NC(=O)[C@H]([C@@H](C)c2cccc3ccccc23)NC(=O)[C@@H]2C[C@@H](N)CN2C(=O)CNC(=O)[C@H](Cc2ccc(C(=O)O)cc2)NC(=O)[C@H](Cc2c[nH]c3ccccc23)NC(=O)[C@H](Cc2ccc(N3CCN(C(C)=O)CC3)cc2)NC(=O)[C@H](CCc2cncc(C#N)c2)NC(=O)[C@@H](CN)NC(=O)[C@H](CC(C)C)NC1=O [Example 205] (cyclo([Phe(4-(4-Ac-piperazinyl))]W[Phe(4-COOH)]G[Pro(4R-NH2)][1Nal(3S-Me)]D[dNMeA]G[Bip(4'-COOH)][Dap](Ac)L[dDap][h3Pal(5-CN)]))
0.015 nM	CC(=O)N1CCN(c2ccc(C[C@@H]3NC(=O)[C@H](CCC4CCCCC4)NC(=O)[C@@H](C)NC(=O)[C@H](CC(C)C)NC(=O)[C@H](CN)NC(=O)[C@H](Cc4ccc(-c5ccc(C(=O)O)cc5)cc4)NC(=O)CNC(=O)[C@@H](C)N(C)C(=O)[C@H](CC(=O)O)NC(=O)[C@H]([C@@H](C)c4cccc5ccccc45)NC(=O)[C@@H]4C[C@@H](N)CN4C(=O)CNC(=O)[C@H](Cc4ccc(C(=O)O)cc4)NC(=O)[C@H](Cc4c[nH]c5ccccc45)NC3=O)cc2)CC1 [Example 206] (cyclo([Phe(4-(4-Ac-piperazinyl))]W[Phe(4-COOH)]G[Pro(4R-NH2)][1Nal(3S-Me)]D[dNMeA]G[Bip(4'-COOH)][Dap]L[dA][hCha]))
0.011 nM	CC(=O)N1CCN(c2ccc(C[C@@H]3NC(=O)[C@H](CCC4CCCCC4)NC(=O)[C@@H](C)NC(=O)[C@H](CC(C)C)NC(=O)[C@H](CCCCN)NC(=O)[C@H](Cc4ccc(-c5ccc(C(=O)O)cc5)cc4)NC(=O)CNC(=O)[C@@H](C)N(C)C(=O)[C@H](CC(=O)O)NC(=O)[C@H]([C@@H](C)c4cccc5ccccc45)NC(=O)[C@@H]4C[C@@H](N)CN4C(=O)CNC(=O)[C@H](Cc4ccc(C(=O)O)cc4)NC(=O)[C@H](Cc4c[nH]c5ccccc45)NC3=O)cc2)CC1 [Example 207] (cyclo([Phe(4-(4-Ac-piperazinyl))]W[Phe(4-COOH)]G[Pro(4R-NH2)][1Nal(3S-Me)]D[dNMeA]G[Bip(4'-COOH)]KL[dA][hCha]))
0.018 nM	CC(=O)NCCCC[C@@H]1NC(=O)[C@H](Cc2ccc(-c3ccc(C(=O)O)cc3)cc2)NC(=O)CNC(=O)[C@@H](C)N(C)C(=O)[C@H](CC(=O)O)NC(=O)[C@H]([C@@H](C)c2cccc3ccccc23)NC(=O)[C@@H]2C[C@@H](N)CN2C(=O)CNC(=O)[C@H](Cc2ccc(C(=O)O)cc2)NC(=O)[C@H](Cc2c[nH]c3ccccc23)NC(=O)[C@H](Cc2ccc(N3CCN(C(C)=O)CC3)cc2)NC(=O)[C@H](CCc2cncc(C#N)c2)NC(=O)[C@@H](C)NC(=O)[C@H](CC(C)C)NC1=O [Example 208] (cyclo([Phe(4-(4-Ac-piperazinyl))]W[Phe(4-COOH)]G[Pro(4R-NH2)][1Nal(3S-Me)]D[dNMeA]G[Bip(4'-COOH)]K(Ac)L[dA][h3Pal(5-CN)]))
0.009 nM	CC(=O)N1CCN(c2ccc(C[C@@H]3NC(=O)[C@H](CCC4CCCCC4)NC(=O)[C@@H](C)NC(=O)[C@H](CC(C)C)NC(=O)[C@H](CCCN)NC(=O)[C@H](Cc4ccc(-c5ccc(C(=O)O)cc5)cc4)NC(=O)CNC(=O)[C@@H](C)N(C)C(=O)[C@H](CC(=O)O)NC(=O)[C@H]([C@@H](C)c4cccc5ccccc45)NC(=O)[C@@H]4C[C@@H](N)CN4C(=O)CNC(=O)[C@H](Cc4ccc(C(=O)O)cc4)NC(=O)[C@H](Cc4c[nH]c5ccccc45)NC3=O)cc2)CC1 [Example 209] (cyclo([Phe(4-(4-Ac-piperazinyl))]W[Phe(4-COOH)]G[Pro(4R-NH2)][1Nal(3S-Me)]D[dNMeA]G[Bip(4'-COOH)][Orn]L[dA][hCha]))
0.02 nM	CC(=O)NCCOc1ccc(C[C@@H]2NC(=O)[C@H](CCC3CCCCC3)NC(=O)[C@@H](CCN)NC(=O)[C@H](CO)NC(=O)[C@H](Cc3c[nH]c4ncccc34)NC(=O)[C@H](Cc3ccc(-c4ccc(C(=O)O)cc4)cc3)NC(=O)CNC(=O)[C@@H](C)N(C)C(=O)[C@H](CC(=O)O)NC(=O)[C@H]([C@@H](C)c3cccc4ccccc34)NC(=O)[C@@H]3C[C@@H](N)CN3C(=O)CNC(=O)[C@H](Cc3ccc(C(=O)O)cc3)NC(=O)[C@H](Cc3c[nH]c4cc(Cl)ccc34)NC2=O)cc1 [Example 210] (cyclo([AEF](Ac)[Trp(6-Cl)][Phe(4-COOH)]G[Pro(4R-NH2)][1Nal(3S-Me)]D[dNMeA]G[Bip(4'-COOH)][Trp(7-aza)]S[dDab][hCha]))
0.027 nM	CC(=O)NCCOc1ccc(C[C@@H]2NC(=O)[C@H](CCc3ccc(O)cc3)NC(=O)[C@@H](CCN)NC(=O)CNC(=O)[C@H](CN3CCc4ccccc43)NC(=O)[C@H](Cc3ccc(-c4ccc(C(=O)O)cc4)cc3)NC(=O)CNC(=O)[C@@H](C)N(C)C(=O)[C@H](CC(=O)O)NC(=O)[C@H]([C@@H](C)c3cccc4ccccc34)NC(=O)[C@@H]3C[C@@H](N)CN3C(=O)CNC(=O)[C@H](Cc3ccc(C(=O)O)cc3)NC(=O)[C@H](Cc3c[nH]c4cc(F)ccc34)NC2=O)cc1 [Example 211] (cyclo([AEF](Ac)[Trp(6-F)][Phe(4-COOH)]G[Pro(4R-NH2)][1Nal(3S-Me)]D[dNMeA]G[Bip(4'-COOH)][Ala(indolin-1-yl)]G[dDab][hTyr]))
0.025 nM	CC(=O)NCCOc1ccc(C[C@@H]2NC(=O)[C@H](CCC3CCCCC3)NC(=O)[C@@H](CCN)NC(=O)[C@H](CO)NC(=O)[C@H](Cc3c[nH]c4ncccc34)NC(=O)[C@H](Cc3ccc(-c4ccc(C(=O)O)cc4)cc3)NC(=O)CNC(=O)[C@@H](C)N(C)C(=O)[C@H](CC(=O)O)NC(=O)[C@H]([C@@H](C)c3cccc4ccccc34)NC(=O)[C@@H]3C[C@@H](N)CN3C(=O)CNC(=O)[C@H](Cc3ccc(C(=O)O)cc3)NC(=O)[C@H](Cc3c[nH]c4cc(F)ccc34)NC2=O)cc1 [Example 212] (cyclo([AEF](Ac)[Trp(6-F)][Phe(4-COOH)]G[Pro(4R-NH2)][1Nal(3S-Me)]D[dNMeA]G[Bip(4'-COOH)][Trp(7-aza)]S[dDab][hCha]))
0.018 nM	CC(=O)NCCOc1ccc(C[C@@H]2NC(=O)[C@H](CCC3CCCCC3)NC(=O)[C@@H](CC[N+](C)(C)C)NC(=O)[C@H](CO)NC(=O)[C@H](Cc3c[nH]c4ncccc34)NC(=O)[C@H](Cc3ccc(-c4ccc(C(=O)O)cc4)cc3)NC(=O)CNC(=O)[C@@H](C)N(C)C(=O)[C@H](CC(=O)O)NC(=O)[C@H]([C@@H](C)c3cccc4ccccc34)NC(=O)[C@@H]3C[C@@H](N)CN3C(=O)CNC(=O)[C@H](Cc3ccc(C(=O)O)cc3)NC(=O)[C@H](Cc3c[nH]c4cc(F)ccc34)NC2=O)cc1 [Example 213] (cyclo([AEF](Ac)[Trp(6-F)][Phe(4-COOH)]G[Pro(4R-NH2)][1Nal(3S-Me)]D[dNMeA]G[Bip(4'-COOH)][Trp(7-aza)]S[X14][hCha]))
0.02 nM	CC(=O)NCCOc1ccc(C[C@@H]2NC(=O)[C@H](CCC3CCCCC3)NC(=O)[C@@H](CCN)NC(=O)CNC(=O)[C@H](Cc3c[nH]c4ncccc34)NC(=O)[C@H](Cc3ccc(-c4ccc(C(=O)O)cc4)cc3)NC(=O)CNC(=O)[C@@H](C)N(C)C(=O)[C@H](CC(=O)O)NC(=O)[C@H]([C@@H](C)c3cccc4ccccc34)NC(=O)[C@@H]3C[C@@H](N)CN3C(=O)CNC(=O)[C@H](Cc3ccc(C(=O)O)cc3)NC(=O)[C@H](Cc3c[nH]c4ccccc34)NC2=O)cc1 [Example 214] (cyclo([AEF](Ac)W[Phe(4-COOH)]G[Pro(4R-NH2)][1Nal(3S-Me)]D[dNMeA]G[Bip(4'-COOH)][Trp(7-aza)]G[dDab][hCha]))
0.024 nM	CC(=O)NCCOc1ccc(C[C@@H]2NC(=O)[C@H](CCc3ccc(O)cc3)NC(=O)[C@@H](CCN)NC(=O)CNC(=O)[C@H](Cc3c[nH]c4ncccc34)NC(=O)[C@H](Cc3ccc(-c4ccc(C(=O)O)cc4)cc3)NC(=O)CNC(=O)[C@@H](C)N(C)C(=O)[C@H](CC(=O)O)NC(=O)[C@H]([C@@H](C)c3cccc4ccccc34)NC(=O)[C@@H]3C[C@@H](N)CN3C(=O)CNC(=O)[C@H](Cc3ccc(C(=O)O)cc3)NC(=O)[C@H](Cc3c[nH]c4ccccc34)NC2=O)cc1 [Example 215] (cyclo([AEF](Ac)W[Phe(4-COOH)]G[Pro(4R-NH2)][1Nal(3S-Me)]D[dNMeA]G[Bip(4'-COOH)][Trp(7-aza)]G[dDab][hTyr]))
